Test results as given in patent publication US20230247995A1, “FUNGICIDAL COMBINATIONS” (UPL Corporation Limited, priority 2022, published 2023).

How the values were obtained:
Assay type in all cases: in vivo
Cladosporium sp. = experiment: Efficacy against scab affecting pecan (nuts); conditions: untreated 33.8
Description: Experiments were carried out to evaluate the efficacy of the fungicidal combination of ipflufenoquin and pyrimethanil (both tank mix fungicidal combination and pre-mix formulation as disclosed in Example 1) against scab (Cladosporium sp.) affecting pecan (i.e., nuts), as disclosed in Table 6.

Wilsonomyces spp. = experiment: Efficacy against Coryneum blight affecting peach crop; conditions: Ipflufenoquin 4, Pyrimethanil 8.9, combination 4 + 8.9 fl oz/a; for % Severity on Fruit: untreated 69.9; for % Disease incidence on Fruit: untreated 100
Description: Experiments were carried out to evaluate the efficacy of the fungicidal combination of ipflufenoquin and pyrimethanil against Coryneum blight (Wilsonomyces spp.) affecting peach crop, as disclosed in Table 5.

Monilinia fructicola = experiment: Efficacy against brown rot affecting peach crop; conditions: Ipflufenoquin 4, Pyrimethanil 8.9, combination 4 + 8.9 fl oz/a; for % Severity on Fruit: untreated 63.8; for % Disease incidence on Fruit: untreated 96
Description: Experiments were carried out to evaluate the efficacy of the fungicidal combination of ipflufenoquin and pyrimethanil against brown rot (Monilinia fructicola) affecting peach crop, as disclosed in Table 4.

[1] = higher rates: Ipflufenoquin 5, Pyrimethanil 11.1, tank mix 5 + 11.1, pre-mix 12.5 fl oz/a
[2] = lower rates: Ipflufenoquin 4, Pyrimethanil 8.9, tank mix 4 + 8.9, pre-mix 10 fl oz/a

Cc1cc(C)nc(Nc2ccccc2)n1 [Pyrimethanil, N-(4,6-dimethylpyrimidin-2-yl) aniline]
% Severity on Nuts (Cladosporium sp.; [1]): 15.7%
% Severity on Nuts (Cladosporium sp.; [2]): 19.2%
% Severity on Fruit (Wilsonomyces spp.): 42.8%
% Disease incidence on Fruit (Wilsonomyces spp.): 65.8%
% Severity on Fruit (Monilinia fructicola): 15.5%
% Disease incidence on Fruit (Monilinia fructicola): 19.5%

Cc1nc2c(F)c(F)ccc2cc1Oc1cccc(F)c1C(C)(C)O [Ipflufenoquin, 2-{2-[(7,8-difluoro-2-methyl-3-quinolyl)oxy]-6-fluorophenyl}propan-2-ol]
% Severity on Nuts (Cladosporium sp.; [1]): 6.7%
% Severity on Nuts (Cladosporium sp.; [2]): 8.4%
% Severity on Fruit (Wilsonomyces spp.): 6.9%
% Disease incidence on Fruit (Wilsonomyces spp.): 36.8%
% Severity on Fruit (Monilinia fructicola): 20.3%
% Disease incidence on Fruit (Monilinia fructicola): 42.5%
